Consider two molecules from patent publication EP2875816A1, “N-(3-hydroxy-5,7-dimethyladamantan-1-yl)-2-(3-oxobenzo[d]isothiazol-2(3h)-yl)acetamide as a novel inhibitor for staphylococcus aureus sortase a” (Latvian Biomedical Research and Study Centre, priority 2013, dated 2015).

Values after ≈ are worked out from the molar mass of the structure shown.

In one experiment the test system is S. epidermidis. Put plainly: Minimum inhibitory concentration (MIC), broth dilution micromethod. In kind it is cell-based. Particulars: Staphylococcus epidermidis; 24 hours at 37 °C, complete inhibition of cell growth, OD 600 nm. The method, then: (§1) The MIC values of test compounds that inhibited cell growth of Gram-positive Staphylococcus aureus and S. epidermidis were determined by broth dilution micromethod. A series of solutions with a range from 0.1 µg/ml to 400 µg/ml were made in using a logarithmical phase culture with OD600 = 0.1 (corresponds to ~1.2 x 10^8 CFU/ml in 96-well plate standard. The plate was incubated at 37 °C for 24 hours and growth was assayed with a microplate reader by monitoring the absorption at 600 nm. All experiments were done in triplicate, and repeated three times.
On the technique in general: In broth dilution the organism is exposed to a series of concentrations in liquid medium.

A further experiment has as its system Staphylococcus aureus. The description is as above. Particulars: 24 hours at 37 °C, complete inhibition of cell growth, OD 600 nm, read-out: MIC, S.aureus. Type of experiment: cell-based. The method, then: as §1
Experiment [1] deals with NIH/3T3 mouse fibroblast cell line. As to the kind of experiment: Cytotoxicity / cell growth inhibition, MTT test. In kind it is cell-based. As to conditions: NIH3T3, 48 hours exposure, mean of three independent experiments ±SD. The method, then: The growth inhibitory effect of the newly synthesized compound was studied on NIH/3T3mouse fibroblast cell line. NIH/3T3 cells were seeded into 96-well microplates with initial density of 1x10^4 cells per well in DMEM culture medium with 10% FCS. After 24 hours of incubation, cells were exposed to a graded series of concentrations of chemical compounds for additional 48 hours. The cell medium was removed and 100 µl of fresh culture medium without phenol red and 1 mM MTT solution was added to each well. After 3 hours of incubation, an equal volume of 1% SDS-HCl solution was added and plates were incubated for additional 4 hours. Absorbance was measured at 570 nm and the data were fitted to a four parameter variable slope equation to determine the IC50 value.
The cytotoxic response is dependent on the cell line tested and NIH/3T3 mouse fibroblasts are a well-characterized cellular model used to study toxicity and drug delivery processes. In the table 3 data are given as the mean of three independent experiments ±SD.
(Tetrazolium assays rely on reduction of a dye to a coloured formazan, in cell work by metabolically active cells.)

For another experiment, the target named is T1, SrtA (Staphylococcus aureus, UniProt Q2FV99).
T1 construct: expressed with an N-terminal deletion of 59 amino acid residues (SrtAΔN59, residues 60-206); made in house
Put plainly: Binding to SrtA monitored by 2D [15N,1H]-HSQC NMR spectroscopy, with dialysis. As to conditions: 2D 15N-1H HSQC spectrum unchanged after dialysis against NMR buffer. From the text:
• Fig. 1 - represents the binding of a selected inhibitor N-(adamantan-1-yl)-2-(3-oxo-2,3-dihydro-1,2-benzothiazol-2-yl)acetamide to SrtA monitored by 2D [^15N,^1H]-HSQC NMR spectroscopy. (a) Spectrum of SrtA in absence of inhibitor. […] (a) SrtA active site after modification by inhibitor. The inhibitor (in cyan) and near-by side chains of SrtA are shown with sticks and labeled. Side chains are colored according to their type: hydrophobic in yellow, negatively charged in red, positively charged in blue and hydrophilic in grey. Hydrogens are omitted for clarity. […] (c) Molecular surface representation of SrtA in complex with inhibitor. It can be seen in the figure that the inhibitor occupies almost all volume of the substrate pocket, the majority of interactions are hydrophobic and hydrogen bond is at the R139.
Determination of the complex structure of selected inhibitor and sortase enzyme was performed by using the nuclear magnetic resonance (NMR) spectroscopy methods. The collected NMR data allowed to specify the structure of inhibitory complexes.
To verify that the selected inhibitor can react with a cysteine thiol (such as the SrtA active site C 184) we performed a reaction with cysteine in the NMR tube and observed the formation of a covalent adduct (Figure 2). The chemical structure of the product was verified using proton 1D and 2D NMR methods.

For experiment [2], the target named is T2, S. aureus sortase A (SrtAΔN59, residues 60-206) (Staphylococcus aureus, UniProt Q2FV99).
T2 construct: expressed with an N-terminal deletion of 59 amino acid residues (SrtAΔN59, residues 60-206); made in house
As to the kind of experiment: SrtA enzyme FRET inhibition assay (dose-response, recombinant sortase A with FRET peptide substrate containing the LPETG motif). Type of experiment: biochemical. The source says:
The catalytically active recombinant sortase A enzyme used for these studies was expressed with an N-terminal deletion of 59 amino acid residues (SrtAΔN59, residues 60-206). The first step included high-throughput screening of potent S. aereus SrtA inhibitors and selection of new antibacterial substances as sortase A inhibitors. In order to identify potent inhibitors of S. aureus sortase A, a high-throughput screening (HTS) of a diverse library of 50,000 drug-like low-molecular weight molecules was performed, which led to the identification of novel promising drug candidates.
These assays included determination of 50% SrtA inhibition concentration (IC50) of the newly synthesized derivative in dose-response experiments using the recombinant sortase
A enzyme incubated with FRET peptide substrate containing the LPETG motif, minimal inhibitory concentration (MIC) test with two staphylococcal species to measure the antimicrobial efficacy of the new inhibitory molecule, and toxicity test using a normal mouse embryonic fibroblasts cell line NIH/3T3 to determine the cell growth IC50 inhibitory concentration.
Values are means ±SD (n = 5).

The term MIC denotes the least concentration at which growth counts as inhibited. The IC50 is the concentration needed to halve the response being measured. As for `O=C(Cn1sc2ccccc2c1=O)NC12CC3CC(CC(C3)C1)C2` [N-(adamantan-1-yl)-2-(3-oxo-2,3-dihydro-1,2-benzothiazol-2-yl)acetamide], the MIC in the experiment on S. epidermidis came to 0.5 µg/mL (≈ 1.46 µM); with Staphylococcus aureus it was 1 µg/mL (≈ 2.92 µM). Also, the IC50 in experiment [1] stood at 1.3 µg/mL (≈ 3.8 µM). Moreover, the “Mode of binding to the active site of SrtA” value at SrtA is “irreversible binding”.
On to `CC12CC3(C)CC(O)(C1)CC(NC(=O)Cn1sc4ccccc4c1=O)(C2)C3` [N-(3-hydroxy-5,7-dimethyladamantan-1-yl)-2-(3-oxobenzo[d]isothiazol-2(3H)-yl)acetamide], for which the IC50 is 3.9 µM in experiment [2] and 8.1 µg/mL (≈ 21 µM) in experiment [1]. Also, the MIC in the experiment with S. epidermidis and with Staphylococcus aureus was 8 µg/mL (≈ 20.7 µM) each time.
